# Test results as given in US20260240906A1, “MUSCLE MASS INCREASING AGENT AND ENDURANCE IMPROVING AGENT” (KOHAKU BIO TECHNOLOGY CO., LTD., priority 2023, published 2026).
# Tests used:
# Assay type in all cases: cell-based, mouse
# C2Cl2 myotube cells [1] = test: Detection of mitochondrial membrane potential (JC-1); details: 1, 2.5, or 5 μg/mL, 24 hours
# Method: (§1) The amber extract obtained through extraction by the method of Example 1 was analyzed for its action using myoblasts C2Cl2. The C2Cl2 cells are cells established from mouse regenerating muscles (striated muscles) and are considered to be derived from muscle satellite cells. The myoblasts, when cultured in a differentiation inducing medium, are fused and differentiated into myotube cells.
# (§2) The C2Cl2 myoblasts were cultured in Dulbecco's modified Eagle medium (DMEM) supplemented with 10% FBS, penicillin (100 Us/ml), and streptomycin ([…]) under conditions of 37° C. and 5% CO2. Differentiation into myotube cells was induced by medium replacement with DMEM containing 2% horse serum when the cells reached 95% confluency. The experiment was carried out using the differentiated C2Cl2 myotube after 5 to 7 days from the induction of differentiation.
# Mitochondrial membrane potential serving as an indicator for mitochondrial activation was also analyzed. C2Cl2 cells were inoculated at 0.5×10^4 cells/well to a 96-well plate and cultured at 37° C. for 48 hours until confluent. […] The mitochondrial membrane potential was measured at green: 485/535 nm (excitation/fluorescence) and red: 535/595 nm (excitation/fluorescence) using JC-1 MitoMP Detection Kit (Dojindo Laboratories).
# C2Cl2 myotube cells [2] = test: Effect on intracellular ATP concentration (luciferin-luciferase system); details: 6 hours or 12 hours
# Method: as §1, §2
# Intracellular ATP levels were measured using a luciferin-luciferase system. C2Cl2 cells were inoculated at 0.5×10^4 cells/well to a 96-well plate and cultured at 37° C. for 48 hours until confluent. After induction of differentiation for 5 days, the cells were treated with the amber extract (25 or 50 μg/mL) prepared by the method of Example 1 or succinic acid (2.5 or 5 μg/mL) for 6 hours or 12 hours. The luminescence of each well was measured at 480/530 nm (excitation/luminescence) using a microplate reader (Synergy H1, BioTek Instruments).
# C2Cl2 myotube cells [3] = test: Detection of mitochondrial ROS; details: 1, 2.5, or 5 μg/mL, 24 hours
# Method: as §1, §2
# Accordingly, in order to confirm this, mitochondrial ROS was detected. C2Cl2 cells were inoculated at 0.5×10^4 cells/well to a 96-well plate and cultured at 37° C. for 48 hours until confluent. After induction of differentiation for 5 days in a differentiation inducing medium, the cells were treated with the amber extract ([…]) or succinic acid (1, 2.5, or 5 μg/mL) for 24 hours. The mitochondrial ROS was measured at 485/565 nm (excitation/fluorescence) using Mitochondrial ROS Detection Assay Kit (Cayman Chemical Company).
structure (smiles),measurement,setting,value
O=C(O)CCC(=O)O [succinic acid],mitochondrial activation (membrane potential),C2Cl2 myotube cells [1],no mitochondrial activation
same,ATP concentration,C2Cl2 myotube cells [2]; 2.5 μg/mL,no change
same,ATP concentration,C2Cl2 myotube cells [2]; 5 ug/mL,no change
same,mitochondrial activation (mitochondrial ROS),C2Cl2 myotube cells [3],no mitochondrial activation
